For four compounds, inhibition results are on record in patent US8546381B2, “Bridged heterocyclic compounds and methods of use” (Medivation Technologies, Inc., priority 2008, dated 2013).

The target in experiment [1] is T1, rat adrenergic α1A receptor (Rattus norvegicus, UniProt P43140).
T1 construct: obtained from Wistar Rat submaxillary glands; from tissue; host or cells: Wistar rat submaxillary glands
T1 sequence (P43140 1-466): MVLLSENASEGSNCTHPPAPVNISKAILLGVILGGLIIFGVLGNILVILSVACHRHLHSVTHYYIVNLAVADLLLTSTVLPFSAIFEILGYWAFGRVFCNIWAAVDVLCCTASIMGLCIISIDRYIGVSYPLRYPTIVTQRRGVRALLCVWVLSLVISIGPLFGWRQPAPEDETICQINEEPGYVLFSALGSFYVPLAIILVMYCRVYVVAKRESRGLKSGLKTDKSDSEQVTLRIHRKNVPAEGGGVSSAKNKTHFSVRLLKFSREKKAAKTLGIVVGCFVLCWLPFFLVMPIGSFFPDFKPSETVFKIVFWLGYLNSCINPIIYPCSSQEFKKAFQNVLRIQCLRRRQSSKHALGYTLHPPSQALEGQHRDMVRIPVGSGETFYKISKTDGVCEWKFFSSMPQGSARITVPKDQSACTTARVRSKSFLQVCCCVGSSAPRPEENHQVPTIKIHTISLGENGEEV
Briefly: Adrenergic α1A radioligand binding ([3H]Prozosin). The settings on record: for inhibition at 1 µM: read-out: Adrenergic α1A, inhibition of ligand binding (1 μM). As to the method: (§1) To evaluate in radioligand binding assays the activity of compounds of the invention, rat adrenergic α1A receptor obtained from Wistar Rat submaxillary glands (Michel, A. D. et al., Br. J. Pharmacol. 98:883, 1989) in a modified Tris-HCl buffer (50 mM Tris-HCl buffer, pH 7.4, 0.5 mM EDTA) was used. Compounds of the invention were incubated with 0.25 nM [^3H]Prozosin for 60 minutes at 25° C. Non-specific binding was estimated in the presence of 10 μM phentolamine. Receptor proteins were filtered and washed, the filters were then counted to determine [^3H]Prozosin specifically bound. Compounds of the invention were screened at 1 μM or lower, using 1% DMSO as vehicle. Compounds of the invention were tested in this biochemical assay and percent inhibition of specific binding was determined.

Experiment [2] concerns the target T2, rat adrenergic α1B receptor (Rattus norvegicus, UniProt P15823).
T2 construct: obtained from Wistar Rat liver; from tissue; host or cells: Wistar rat liver
T2 sequence (P15823 1-515): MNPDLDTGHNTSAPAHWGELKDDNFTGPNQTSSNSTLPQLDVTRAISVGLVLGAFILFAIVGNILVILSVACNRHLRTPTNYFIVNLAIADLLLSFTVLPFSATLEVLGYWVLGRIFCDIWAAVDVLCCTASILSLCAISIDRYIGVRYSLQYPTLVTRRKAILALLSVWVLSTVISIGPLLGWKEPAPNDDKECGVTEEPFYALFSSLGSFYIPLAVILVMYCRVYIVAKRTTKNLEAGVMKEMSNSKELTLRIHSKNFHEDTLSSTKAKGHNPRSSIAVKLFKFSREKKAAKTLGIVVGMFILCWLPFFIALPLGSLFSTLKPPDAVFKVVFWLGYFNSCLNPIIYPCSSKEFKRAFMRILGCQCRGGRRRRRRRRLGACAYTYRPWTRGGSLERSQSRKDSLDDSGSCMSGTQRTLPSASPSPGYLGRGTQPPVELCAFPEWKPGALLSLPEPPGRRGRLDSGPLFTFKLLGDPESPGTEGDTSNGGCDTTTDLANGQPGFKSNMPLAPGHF
Put plainly: Adrenergic α1B radioligand binding ([3H]Prozosin). As to conditions: for inhibition at 1 µM: read-out: Adrenergic α1B, inhibition of ligand binding (1 μM). The protocol:
as §1, with “rat adrenergic α1B receptor obtained” for “rat adrenergic α1A receptor obtained”, “Wistar Rat liver (Garcia-S'ainz, J. A. et al., Biochem. Biophys. Res. Commun. 186:760, 1992; Michel A. D.” for “Wistar Rat submaxillary glands (Michel, A. D.”, “bound. Compounds were screened” for “bound. Compounds of the invention were screened”

For experiment [3], the target named is T3, human recombinant adrenergic α2C receptor (Homo sapiens, UniProt P18825).
T3 construct: expressed in transfected cells; host or cells: insect Sf9 cells
T3 sequence (P18825 1-462): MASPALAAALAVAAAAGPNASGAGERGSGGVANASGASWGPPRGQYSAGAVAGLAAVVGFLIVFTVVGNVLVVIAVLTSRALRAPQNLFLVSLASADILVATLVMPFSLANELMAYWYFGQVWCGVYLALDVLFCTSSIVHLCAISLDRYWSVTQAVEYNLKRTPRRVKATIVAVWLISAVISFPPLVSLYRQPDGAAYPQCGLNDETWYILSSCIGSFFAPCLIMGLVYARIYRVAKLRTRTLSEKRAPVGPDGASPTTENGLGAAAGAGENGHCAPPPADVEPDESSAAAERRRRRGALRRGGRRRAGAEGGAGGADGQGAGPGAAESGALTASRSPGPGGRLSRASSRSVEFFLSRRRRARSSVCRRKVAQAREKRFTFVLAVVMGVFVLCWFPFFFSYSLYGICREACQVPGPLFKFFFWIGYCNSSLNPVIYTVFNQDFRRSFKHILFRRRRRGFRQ
Briefly: Adrenergic α2C radioligand binding ([3H]MK-912). As to conditions: for inhibition at 1 µM: read-out: Adrenergic α2C, inhibition of ligand binding (1 μM). The protocol: To evaluate in radioligand binding assays the activity of compounds of the invention, human recombinant adrenergic α2C receptor expressed in insect Sf9 cells (Uhlen S et al. J Pharmacol Exp Ther. 271:1558, 1994) in a modified Tris-HCl buffer (50 mM Tris-HCl, pH 7.4, 12.5 mM MgCl2, 2 mM EDTA) was used. Compounds of the invention were incubated with 1 nM [^3H]MK-912 for 60 minutes at 25° C. Non-specific binding was estimated in the presence of 10 μM WB-4101. Receptor proteins were filtered and washed, the filters were then counted to determine [^3H]MK-912 specifically bound. Compounds were screened at 1 μM or lower, using 1% DMSO as vehicle. Compounds of the invention were tested in this biochemical assay and percent inhibition of specific binding was determined.

As usually defined, the inhibition is the relative decrease from the control value, in per cent. `Cc1ccc2c(c1)c1c(n2CCc2ccccc2)CC2CCC1N2C` (stereo not drawn) [Compound 2]: the inhibition at 0.03 µM in experiment [1] (read-out: Adrenergic α1A, inhibition of ligand binding (0.03 μM)) was determined as 66%; in experiment [2] (read-out: Adrenergic α1B, inhibition of ligand binding (0.03 μM)), 63%; in experiment [3] (read-out: Adrenergic α2C, inhibition of ligand binding (0.03 μM)), 14%. For the same compound, the inhibition at 0.3 µM turned out to be 97% in experiment [1] (read-out: Adrenergic α1A, inhibition of ligand binding (0.3 μM)); 89% in experiment [2] (read-out: Adrenergic α1B, inhibition of ligand binding (0.3 μM)); 69% in experiment [3] (read-out: Adrenergic α2C, inhibition of ligand binding (0.3 μM)). The inhibition at 1 µM worked out at 98% in experiment [1], 99% in experiment [2] and 97% in experiment [3].
As to `Cc1ccc2c(c1)c1c(n2CCc2ccccc2)CC2CCCC1N2C` (stereo not drawn) [Compound 56], the inhibition at 1 µM in experiment [1] is 94%; in experiment [2], 80%; in experiment [3], 55%.
The matching figures for `CN1C2CCC1c1c(n(CCc3ccc(F)cc3)c3ccc(Cl)cc13)C2` (stereo not drawn) [Compound 57]: 90%, 87% and 83%.
The matching figures for `CN1C2CCC1c1c(n(CCc3ccc(Cl)cc3)c3ccc(Cl)cc13)C2` (stereo not drawn) [Compound 58]: 89%, 83% and 89%.
